# From paper PMC9995496, “A screen for MeCP2-TBL1 interaction inhibitors using a luminescence-based assay” (Scientific Reports, 2023)
# Where a name gives a salt, the structure may show the parent alone. Read-outs that look alike come from different tables or passages of the source.
# System: PRKACA-PRKAR2A interaction (SmBiT-PRKACA / LgBiT-PRKAR2A), protein kinase A
# Design: NanoLuc complementation counter-screen in cell extract, PRKACA with PRKAR2A, loss of luminescence, detects NanoLuc interference
# Conditions: counter-screen for NanoLuc interference, 0.5 h, 20 µM, inhibitor
Compound,Inh (PKA),Inh (PKA) (Inh (PKA))
"O=C1[C@@H]2[C@H]3CC[C@H](C3)[C@@H]2C(=O)N1C[C@@H]1CCCC[C@H]1CN1CCN(c2nsc3ccccc23)CC1 [UM0142271:01, Lurasidone HCl]",12.01%,
"CCN1CCCC1CNC(=O)c1cc(S(=O)(=O)CC)c(N)cc1OC (stereo not drawn) [UM0142272:01, Amisulpride]",0.7269%,
"CCCN[C@H]1CCc2nc(N)sc2C1 [UM0142273:01, Pramipexole]",-0.01445%,
"OCCOCCN1CCN(C2=Nc3ccccc3Sc3ccccc32)CC1 [UM0142275:01, Quetiapine Fumarate]",6.997%,
"CCOC(=O)c1ccc(N2NC(=O)/C(=C/c3ccc([N+](=O)[O-])o3)C2=O)cc1 [UM0142276:01, PYR-41]",36.3%,
"COc1cc2c(cc1-c1c(C)noc1C)ncc1[nH]c(=O)n([C@H](C)c3ccccn3)c12 [UM0142279:01, I-BET151 (GSK1210151A)]",10.84%,
"C[C@]12CC[C@@H]3c4ccc(O)cc4CC[C@H]3[C@@H]1CC[C@@H]2OC(=O)CCC1CCCC1 [UM0142280:01, Estradiol Cypionate]",4.433%,
"C=CC[C@]1(O)CC[C@H]2[C@@H]3CCC4=CC(=O)CCC4=C3C=C[C@@]21C [UM0142281:01, Altrenogest]",7.202%,
"CCCCC(=O)O[C@H]1CC[C@H]2[C@@H]3CCc4cc(O)ccc4[C@H]3CC[C@]12C [UM0142282:01, Estradiol valerate]",9.885%,
"CC[C@H](c1ccc(O)cc1)[C@@H](CC)c1ccc(O)cc1 [UM0142283:01, Hexestrol]",49.6%,
"CC(=O)O[C@]1(C(C)=O)CC[C@H]2[C@@H]3C[C@H](C)C4=CC(=O)CC[C@]4(C)[C@H]3CC[C@@]21C [UM0142284:01, Medroxyprogesterone acetate]",6.658%,
"CC(=O)[C@H]1CC[C@H]2[C@@H]3CC=C4C[C@@H](O)CC[C@]4(C)[C@H]3CC[C@]12C [UM0142285:01, Pregnenolone]",6.585%,
"C[C@]12CCC3=C4CCC(=O)C=C4CC[C@H]3[C@@H]1CC[C@@]2(O)CC#N [UM0142287:01, Dienogest]",-0.135%,
"C#C[C@]1(O)C=C[C@H]2[C@@H]3CCC4=CC(=O)CC[C@@H]4[C@H]3CC[C@@]21CC [UM0142288:01, Gestodene]",7.119%,
"CS(=O)(=O)c1cccc(CNc2nc(Nc3ccc4c(c3)CCC(=O)N4)ncc2C(F)(F)F)c1 [UM0142290:01, PF-573228]",25.03%,
"COc1c(C)c(C(=O)c2ccc(N)c(C(=O)O)c2)n2ccccc12 [UM0142292:01, SSR128129E]",31.08%,
"CC(C)c1onc(-c2c(Cl)cccc2Cl)c1COc1ccc(/C=C/c2cccc(C(=O)O)c2)c(Cl)c1 [UM0142293:01, GW4064]",30.87%,
"NCC1(CC(=O)O)CCCCC1 [UM0142295:01, Gabapentin HCl]",,0.4431%
"COc1ccnc2[nH]cc(C(=O)C(=O)N3CCN(C(=O)c4ccccc4)C[C@H]3C)c12 [UM0142297:01, BMS-378806]",0.2509%,
"N#Cc1ccc2[nH]c(O)c(-c3ccc(CN4CCOCC4)cn3)c2c1 [UM0142298:01, AZD1080]",15.47%,
"CC(C)(C)c1ccc(CN2CCN(C(c3ccccc3)c3ccc(Cl)cc3)CC2)cc1 (stereo not drawn) [UM0142302:01, Buclizine HCl]",2.001%,

Compound,Inh (PKA),Inh (PKA) (Inh (PKA))
"CN/C(=N\CCSCc1nc[nH]c1C)NC#N [UM0142305:01, Cimetidine]",1.548%,
"Cc1ccc2c(c1)c1c(n2CCc2ccc(C)nc2)CCN(C)C1 [UM0142307:01, Latrepirdine]",3.431%,
"CN(C)CC/C=C1/c2ccccc2COc2ccc(CC(=O)O)cc21 [UM0142309:01, Olopatadine HCl]",-1.243%,
"CCC(CC)(NC(=O)C(C)C)C(=O)N[C@@H](CCCN=C(N)N)C(=O)NC1(C(=O)NC(c2ccc(F)cc2)c2ccc(F)cc2)CCCC1 [UM0142313:01, MM-102]",12.23%,
"O=C(c1ccc(Nc2nccc(-c3cc4ccccc4s3)n2)cc1)N1CCC(N2CCCC2)CC1 [UM0142314:01, IKK-16 (IKK Inhibitor VII)]",16.61%,
"O=C(Nc1cc(C(F)(F)F)cc(C(F)(F)F)c1)c1cc(Cl)ccc1O [UM0142315:01, IMD 0354]",90.14%,
"C1=N/C2=N/c3ccc(OCCN4CCCC4)c(c3)COC/C=C/COCc3cccc(c3)C(=C1)N2 [UM0142316:01, Pacritinib (SB1518)]",30.05%,
"Cc1ccc(C(=O)N(CCCN)[C@@H](c2oc3cc(Cl)ccc3c(=O)c2Cc2ccccc2)C(C)C)cc1 [UM0142317:01, SB743921]",14.68%,
"Nc1nc(N)nc(-c2cc(Cl)ccc2Cl)n1 [UM0142318:01, Irsogladine]",5.104%,
"C[N+](C)(C)CCOC(=O)CCC(=O)OCC[N+](C)(C)C [UM0142319:01, Succinylcholine Chloride Dihydrate]",-1.734%,
"O=C(O[C@H]1C[N+]2(CCCOc3ccccc3)CCC1CC2)C(O)(c1cccs1)c1cccs1 [UM0142325:01, Aclidinium Bromide]",1.77%,
"C[N+]1(C)[C@@H]2C[C@@H](OC(=O)[C@H](CO)c3ccccc3)C[C@H]1[C@@H]1O[C@@H]12 [UM0142326:01, Methscopolamine]",1.249%,
"COc1cc(OC)c(NC(=O)Nc2cc(C)on2)cc1Cl [UM0142328:01, PNU-120596]",15.14%,
"Cn1c(=O)c(F)c(Nc2ccc(I)cc2F)c2c(=O)n(C[C@@H](O)CO)cnc21 [UM0142329:01, TAK-733]",15.12%,
"Cc1cc(Nc2ccc(NC(=O)c3ccc(Nc4ccnc5ccccc45)cc3)cc2)nc(N)n1 [UM0142330:01, SGI-1027]",9.462%,
"c1cncc(CN2CCC(n3ncc4c(N5CCOCC5)nc(-c5ccc6[nH]ccc6c5)nc43)CC2)c1 [UM0142335:01, WAY-600]",7.744%,
"CNC(=O)Nc1ccc(-c2nc(N3CC4CCC(C3)O4)c3cnn(C4CCC5(CC4)OCCO5)c3n2)cc1 [UM0142336:01, WYE-125132 (WYE-132)]",31.62%,
"Cc1ccc(NCCCc2ccccc2)c(N)c1 [UM0142338:01, JSH-23]",14.43%,
"Nc1c(CC(=O)O)cccc1C(=O)c1ccccc1 [UM0142341:01, Amfenac Sodium Monohydrate]",3.127%,
"Nc1c(CC(=O)O)cccc1C(=O)c1ccc(Br)cc1 [UM0142342:01, Bromfenac Sodium]",5.05%,
"CC(C(=O)O)c1ccc2c(c1)[nH]c1ccc(Cl)cc12 (stereo not drawn) [UM0142344:01, Carprofen]",82.74%,

Compound,Inh (PKA),Inh (PKA) (Inh (PKA))
"CO/N=C(\C(=O)N[C@@H]1C(=O)N2C(C(=O)O)=C(CSc3nc(=O)c(O)nn3C)CS[C@H]12)c1csc(N)n1 [UM0142345:01, Ceftriaxone Sodium Trihydrate]",3.455%,
"Cc1c(O)c(=O)ccn1C [UM0142352:01, Deferiprone]",0.006466%,
"CN(C)CCOC(C)(c1ccccc1)c1ccccn1 (stereo not drawn) [UM0142354:01, Doxylamine Succinate]",1.104%,
"CCOC(CN1CCN(CC(C)C(=O)c2ccccc2)CC1)c1ccccc1 (stereo not drawn) [UM0142356:01, Eprazinone 2HCl]",5.222%,
"COC(=O)Nc1nc2cc(C(=O)c3ccc(F)cc3)ccc2[nH]1 [UM0142358:01, Flubendazole]",6.18%,
"CCC(=O)O[C@]1(C(=O)CCl)[C@@H](C)C[C@H]2[C@@H]3C[C@H](F)C4=CC(=O)C=C[C@]4(C)[C@@]3(F)[C@@H](O)C[C@@]21C [UM0142361:01, Halobetasol Propionate]",7.218%,
"NCCc1c[nH]cn1 [UM0142362:01, Histamine Phosphate]",,-0.9808%
"CCCCCN(C)CCC(O)(P(=O)(O)O)P(=O)(O)O [UM0142363:01, Ibandronate sodium]",1.018%,
"CC(C)CC(N)=O [UM0142364:01, Isovaleramide]",-0.438%,
"CN(C)c1ccc(O)c2c1C[C@H]1C[C@H]3[C@H](N(C)C)C(O)=C(C(N)=O)C(=O)[C@@]3(O)C(O)=C1C2=O [UM0142369:01, Minocycline HCl]",5.155%,
"NC[C@@H]1O[C@H](O[C@H]2[C@@H](O)[C@H](O[C@@H]3[C@@H](O)[C@H](N)C[C@H](N)[C@H]3O[C@H]3O[C@H](CN)[C@@H](O)[C@H](O)[C@H]3N)O[C@@H]2CO)[C@H](N)[C@@H](O)[C@@H]1O [UM0142371:01, Neomycin sulfate]",1.127%,
"CCN[C@@H]1C[C@H](N)[C@@H](O[C@H]2OC(CN)=CC[C@H]2N)[C@H](O)[C@H]1O[C@H]1OC[C@](C)(O)[C@H](NC)[C@H]1O [UM0142372:01, Netilmicin Sulfate]",-0.6216%,
"CC[C@@H]1/C=C(\C)C[C@H](C)C[C@H](OC)[C@H]2O[C@@](O)(C(=O)C(=O)N3CCCC[C@H]3C(=O)O[C@H](/C(C)=C/[C@@H]3CC[C@H](Cl)[C@H](OC)C3)[C@H](C)[C@@H](O)CC1=O)[C@H](C)C[C@@H]2OC [UM0142376:01, Pimecrolimus]",0.5953%,
"Nc1ccc2cc3ccc(N)cc3nc2c1 [UM0142377:01, Proflavine Hemisulfate]",0.7107%,
"NC[C@H]1O[C@H](O[C@H]2[C@H](O[C@@H]3O[C@H](CO)[C@@H](O)[C@H]3O)[C@@H](O)[C@H](N)C[C@@H]2N)[C@H](N)[C@@H](O)[C@@H]1O [UM0142378:01, Ribostamycin Sulfate]",35.19%,
"Cc1ccc(C(=O)C(C)CN2CCCCC2)cc1 (stereo not drawn) [UM0142383:01, Tolperisone HCl]",-1.099%,
"NC[C@H]1CC[C@H](C(=O)O)CC1 [UM0142384:01, Tranexamic Acid]",2.588%,
"CCC[S+]([O-])c1ccc2[nH]c(NC(=O)OC)nc2c1 (stereo not drawn) [UM0142387:01, Albendazole Oxide]",2.774%,
"C=CCNC(N)=S [UM0142388:01, Allylthiourea]",3.519%,
"Oc1ccc(OC2CCCCO2)cc1 (stereo not drawn) [UM0142392:01, Deoxyarbutin]",1.229%,
"O=C(O)Cc1ccccc1Nc1c(Cl)cccc1Cl [UM0142393:01, Diclofenac Diethylamine]",,11.28%
